US10774051B2, “6-membered heterocyclic derivatives and pharmaceutical composition comprising the same” (Shionogi & Co., Ltd., priority 2015, dated 2020)

molecular target: human P2X7 receptor (Homo sapiens, UniProt Q99572, R270H/Y155H); assay: Evaluation of human P2X7 receptor inhibitory activity (Yo-Pro uptake, BzATP stimulation, FLIPR TETRA); format: cell-based; conditions: 1321N1 cells stably expressing human P2X7 receptor; BzATP stimulation, Yo-Pro uptake; read-out: IC50 (antagonistic activity for the human P2X7 receptor)
Protocol: Stably expressing cell line (1321N1 cell transfected with the human P2X7 receptor gene (GenBank accession number NM_002562.5 including T606C and G952A SNP)) was used. The cells were seeded in a 384-well microtiter plate at a concentration of 8000 cells/well and cultured in the medium (10% fetal bovine serum, 25 mM HEPES, 1% penicillin and streptomycin in DMEM) for one day at 37° C. under 5% carbon dioxide atmosphere. After replacing with 20 μL of the HBSS buffer (20 mM HEPES, 55.6 mM D-glucose, 1×HBSS(−), pH7.4-7.5), 15 μL of 17.3 μM Yo-Pro solution in the HBSS buffer was added. The plate was placed in high-throughput cellular screening system FLIPR TETRA (Molecullar Devices, LLC.) and 15 μL of 130 μM BzATP solution in the HBSS buffer was added. Measurement of fluorescence intensity by FLIPR TETRA was started. After eight minutes, 15 μL of DMSO solutions containing different concentrations of the compound of the present invention as prepared by dilution with the HBSS buffer were dispensed to each well through the built-in automatic dispenser, and the measurement of fluorescence intensity was continued for 20 minutes. […] Changing values of fluorescence intensity by the compound of the present invention were calculated by difference between maximum and minimum fluorescence intensity for 20 minutes. Inhibition ratios (%) were calculated from the following equation:
[formula] IC50 was calculated using logistic approximation.

Q: Which IC50 does the source give for `COc1cn(CCc2ccccc2)c(Nc2cccc(Cl)c2C)nc1=O` [Compound I-0008] here?
A: The IC50 was 37 nM.

Q: Which IC50 does the source give for `Cc1c(Cl)cccc1Nc1nc(=O)c(C#N)cn1Cc1ccccc1` [Compound I-0013] here?
A: Its IC50 is 39 nM.

Q: Which IC50 does the source give for `COc1cn(Cc2ccccc2C)c(Nc2cccc(C(F)(F)F)c2Cl)nc1=O` [Compound I-0014] here?
A: Its IC50 is 250 nM.

Q: For `Cc1c(Cl)cccc1Nc1nc(=O)c(C(=O)NC2CCOCC2)cn1Cc1ccccc1` [Compound I-0019], which IC50 is on record?
A: Its IC50 is 49 nM.

Q: For `COC(=O)Nc1cn(Cc2ccccc2)c(Nc2cccc(Cl)c2C)nc1=O` [Compound I-0020], which IC50 is on record?
A: Its IC50 is 17 nM.

Q: For `Cc1c(Cl)cccc1Nc1nc(=O)c(N)cn1Cc1ccccc1` [Compound I-0022], which IC50 is on record?
A: Its IC50 is 17 nM.

Q: `Cc1nc2cc(C)c(Nc3cc(=O)n(C)c(=O)n3Cc3cc(F)c(F)c(F)c3)cc2s1` [Compound I-0030] was tested. Which IC50 did it give?
A: The IC50 was 34 nM.

Q: For `COc1cn(Cc2ccc(F)c(Cl)c2)c(Nc2cc3sc(C)nc3cc2C)nc1=O` [Compound I-0033], which IC50 is on record?
A: Its IC50 is 49 nM.

Q: `COc1cn(Cc2ccccc2)c(NC2C[C@@H]3CC[C@H]2C3)nc1=O` (stereo partly drawn) [Compound I-0042] was tested. Which IC50 did it give?
A: Its IC50 is 830 nM.

Q: How did the IC50 turn out when `COc1cccc(Cn2cc(OC)c(=O)nc2Nc2cccc(Cl)c2C)c1` [Compound I-0052] was run?
A: Its IC50 is 130 nM.

Q: `Cc1c(Cl)cccc1Nc1nc(=O)ccn1CCc1ccccc1` [Compound I-0055] was tested. Which IC50 did it give?
A: The IC50 was 26 nM.

Q: For `COc1cn(Cc2ccccc2)c(Nc2cccc3c2CCC3)nc1=O` [Compound I-0062], which IC50 is on record?
A: Its IC50 is 590 nM.

same assay, conditions: 1321N1 cells stably expressing human P2X7 receptor; BzATP stimulation, Yo-Pro uptake; read-out: IC50 (antagonistic activity for the human P2X7 receptor), class symbol

Q: `COc1cn(Cc2ccc(F)cc2)c(Nc2cccc(Cl)c2C)nc1=O` [Compound I-0001] was tested. Which IC50 did it give?
A: The IC50 was < 10 nM.

Q: For `COc1cn(Cc2cc(F)cc(F)c2)c(Nc2cccc(Cl)c2C)nc1=O` [Compound I-0002], which IC50 is on record?
A: Its IC50 is < 10 nM.

Q: How did the IC50 turn out when `COc1cn(Cc2cc(F)cc(F)c2)c(Nc2cc3c(cc2C)COC3)nc1=O` [Compound I-0003] was run?
A: The IC50 was < 10 nM.

Q: With `COc1cccc(Nc2nc(=O)c(OC)cn2Cc2ccccc2)c1C` [Compound I-0007] as the compound, how does the IC50 read?
A: The IC50 was 10 to 100 nM.

Q: For `Cc1c(Cl)cccc1Nc1nc(=O)ccn1Cc1ccccc1` [Compound I-0009], which IC50 is on record?
A: The IC50 was < 10 nM.

Q: How did the IC50 turn out when `Cc1c(Cl)cccc1Nc1nc(=O)c(F)cn1Cc1ccccc1` [Compound I-0010] was run?
A: The IC50 was < 10 nM.

Q: For `Cc1c(Cl)cccc1Nc1nc(=O)c(Cl)cn1Cc1ccccc1` [Compound I-0011], which IC50 is on record?
A: Its IC50 is 10 to 100 nM.

Q: `Cc1c(Cl)cccc1Nc1nc(=O)c(C)cn1Cc1ccccc1` [Compound I-0012] was tested. Which IC50 did it give?
A: The IC50 was 10 to 100 nM.

Q: How did the IC50 turn out when `Cc1ccccc1Cn1cc(O)c(=O)nc1Nc1cccc(C(F)(F)F)c1Cl` [Compound I-0015] was run?
A: Its IC50 is 500 to 1000 nM.

Q: `Cc1c(Cl)cccc1Nc1nc(=O)c(OCC(F)(F)F)cn1Cc1ccccc1` [Compound I-0016] was tested. Which IC50 did it give?
A: Its IC50 is 10 to 100 nM.

Q: With `Cc1c(Cl)cccc1Nc1nc(=O)c(C(=O)O)cn1Cc1ccccc1` [Compound I-0018] as the compound, how does the IC50 read?
A: Its IC50 is 100 to 500 nM.

Q: Which IC50 does the source give for `Cc1c(Cl)cccc1Nc1nc(=O)c(NC(=O)OC(C)(C)C)cn1Cc1ccccc1` [Compound I-0021] here?
A: Its IC50 is 100 to 500 nM.

Q: `CCOC(=O)Cc1cn(Cc2ccccc2)c(Nc2cccc(Cl)c2C)nc1=O` [Compound I-0023] was tested. Which IC50 did it give?
A: Its IC50 is 100 to 500 nM.

Q: Which IC50 does the source give for `Cc1c(Cl)cccc1Nc1nc(=O)c(CCO)cn1Cc1ccccc1` [Compound I-0024] here?
A: Its IC50 is 10 to 100 nM.

Q: For `Cc1c(Cl)cccc1Nc1nc(=O)c(CC(=O)O)cn1Cc1ccccc1` [Compound I-0025], which IC50 is on record?
A: Its IC50 is 500 to 1000 nM.

Q: Which IC50 does the source give for `Cc1c(Cl)cccc1Nc1nc(=O)c(CC(N)=O)cn1Cc1ccccc1` [Compound I-0026] here?
A: Its IC50 is 10 to 100 nM.

Q: With `Cc1c(Cl)cccc1Nc1nc(=O)c(Br)cn1Cc1ccccc1` [Compound I-0027] as the compound, how does the IC50 read?
A: Its IC50 is 10 to 100 nM.

Q: `Cc1c(Cl)cccc1Nc1nc(=O)c(-c2ccccc2)cn1Cc1ccccc1` [Compound I-0028] was tested. Which IC50 did it give?
A: The IC50 was 500 to 1000 nM.

Q: How did the IC50 turn out when `COc1cn(Cc2ccccc2)c(NCc2cccc(C(F)(F)F)c2Cl)nc1=O` [Compound I-0035] was run?
A: The IC50 was 100 to 500 nM.

Q: How did the IC50 turn out when `COc1cn(Cc2ccccc2)c(Nc2cccc(C(F)(F)F)c2Cl)nc1=O` [Compound I-0036] was run?
A: The IC50 was 100 to 500 nM.

Q: How did the IC50 turn out when `COc1cn(Cc2ccccc2)c(Nc2cccc(Cl)c2C)nc1=O` [Compound I-0037] was run?
A: The IC50 was < 10 nM.

Q: For `COc1cn(Cc2ccc(F)cc2)c(Nc2cccc(C(F)(F)F)c2Cl)nc1=O` [Compound I-0038], which IC50 is on record?
A: The IC50 was 10 to 100 nM.

Q: Which IC50 does the source give for `COc1cn(Cc2cccc(F)c2)c(Nc2cccc(Cl)c2C)nc1=O` [Compound I-0039] here?
A: The IC50 was 10 to 100 nM.

Q: For `COc1cn(Cc2ccccc2F)c(Nc2cccc(Cl)c2C)nc1=O` [Compound I-0040], which IC50 is on record?
A: The IC50 was 10 to 100 nM.

Q: For `Cc1c(Cl)cccc1Nc1nc(=O)c(F)cn1Cc1ccc(F)cc1` [Compound I-0041], which IC50 is on record?
A: The IC50 was < 10 nM.

Q: `COc1cn(Cc2ccccc2C)c(Nc2cccc(Cl)c2C)nc1=O` [Compound I-0043] was tested. Which IC50 did it give?
A: Its IC50 is 100 to 500 nM.

Q: Which IC50 does the source give for `COc1cn(Cc2cccc(C)c2)c(Nc2cccc(Cl)c2C)nc1=O` [Compound I-0044] here?
A: The IC50 was 10 to 100 nM.

Q: How did the IC50 turn out when `COc1cn(Cc2ccc(C)cc2)c(Nc2cccc(Cl)c2C)nc1=O` [Compound I-0045] was run?
A: The IC50 was 500 to 1000 nM.

Q: `COc1cn(Cc2cccc(C#N)c2)c(Nc2cccc(Cl)c2C)nc1=O` [Compound I-0047] was tested. Which IC50 did it give?
A: Its IC50 is 500 to 1000 nM.

Q: With `COc1cn(Cc2ccccc2)c(Nc2cccc3c2CCNC3)nc1=O` [Compound I-0050] as the compound, how does the IC50 read?
A: Its IC50 is 500 to 1000 nM.

Q: With `COc1ccccc1Cn1cc(OC)c(=O)nc1Nc1cccc(Cl)c1C` [Compound I-0054] as the compound, how does the IC50 read?
A: The IC50 was 100 to 500 nM.

Q: With `Cc1c(Cl)cccc1Nc1nc(=O)c(C#N)cn1Cc1ccc(F)cc1` [Compound I-0056] as the compound, how does the IC50 read?
A: The IC50 was 10 to 100 nM.

Q: Which IC50 does the source give for `COc1cn(Cc2ccccc2)c(Nc2ccccc2Cl)nc1=O` [Compound I-0060] here?
A: The IC50 was 500 to 1000 nM.

Q: Which IC50 does the source give for `COc1cn(Cc2ccccc2)c(Nc2ccccc2C)nc1=O` [Compound I-0061] here?
A: Its IC50 is 500 to 1000 nM.

Q: Which IC50 does the source give for `COc1cn(Cc2ccccc2)c(NCc2ccccc2C(F)(F)F)nc1=O` [Compound I-0065] here?
A: Its IC50 is 500 to 1000 nM.

Q: For `COc1cn(Cc2ccccc2)c(NCc2ccccc2Oc2ccc(C)cc2)nc1=O` [Compound I-0066], which IC50 is on record?
A: Its IC50 is 500 to 1000 nM.

Q: Which IC50 does the source give for `COc1cn(Cc2ccccc2)c(NCc2ccccc2N(C)C)nc1=O` [Compound I-0067] here?
A: Its IC50 is 500 to 1000 nM.

Q: For `COc1cn(Cc2ccccc2)c(Nc2cc(C)ccc2C)nc1=O` [Compound I-0068], which IC50 is on record?
A: Its IC50 is 10 to 100 nM.

Q: Which IC50 does the source give for `COc1cn(Cc2ccccc2)c(Nc2cc(N3CCCS3(=O)=O)ccc2C)nc1=O` [Compound I-0070] here?
A: Its IC50 is 10 to 100 nM.

Q: With `COc1cn(Cc2ccccc2)c(Nc2ccc(Cl)cc2Cl)nc1=O` [Compound I-0071] as the compound, how does the IC50 read?
A: The IC50 was 100 to 500 nM.

Q: For `COc1cn(Cc2ccccc2)c(Nc2ccc(Cl)cc2C)nc1=O` [Compound I-0072], which IC50 is on record?
A: The IC50 was 10 to 100 nM.

Q: For `COc1cn(Cc2ccccc2)c(NC2CCc3ccccc32)nc1=O` (stereo not drawn) [Compound I-0073], which IC50 is on record?
A: Its IC50 is 500 to 1000 nM.

Q: For `COc1ccc(C)c(Nc2nc(=O)c(OC)cn2Cc2ccccc2)c1` [Compound I-0074], which IC50 is on record?
A: Its IC50 is 10 to 100 nM.

Q: `Cc1c(Cl)cccc1Nc1nc(=O)c(C(=O)NCC#N)cn1Cc1ccccc1` [Compound I-0075] was tested. Which IC50 did it give?
A: The IC50 was 100 to 500 nM.

Q: How did the IC50 turn out when `COCCNC(=O)c1cn(Cc2ccccc2)c(Nc2cccc(Cl)c2C)nc1=O` [Compound I-0076] was run?
A: Its IC50 is 100 to 500 nM.

Q: `Cc1c(Cl)cccc1Nc1nc(=O)c(C(=O)NCCS(C)(=O)=O)cn1Cc1ccccc1` [Compound I-0077] was tested. Which IC50 did it give?
A: Its IC50 is 10 to 100 nM.

Q: How did the IC50 turn out when `CCNC(=O)c1cn(Cc2ccccc2)c(Nc2cccc(Cl)c2C)nc1=O` [Compound I-0078] was run?
A: Its IC50 is 100 to 500 nM.

Q: How did the IC50 turn out when `COc1cn(Cc2ccccc2)c(Nc2cc(Cl)ccc2Cl)nc1=O` [Compound I-0080] was run?
A: Its IC50 is 100 to 500 nM.

Q: With `COc1cn(Cc2ccccc2)c(Nc2cccc(F)c2C)nc1=O` [Compound I-0082] as the compound, how does the IC50 read?
A: The IC50 was 100 to 500 nM.

Q: `COc1cn(Cc2ccccc2)c(Nc2c(Cl)cccc2Cl)nc1=O` [Compound I-0083] was tested. Which IC50 did it give?
A: Its IC50 is 500 to 1000 nM.

Q: Which IC50 does the source give for `CCc1ccccc1Nc1nc(=O)c(OC)cn1Cc1ccccc1` [Compound I-0084] here?
A: Its IC50 is 10 to 100 nM.
